# Reference: paper PMC7093416, “Selective USP7 inhibition elicits cancer cell killing through a p53-dependent mechanism” (Scientific Reports, 2020)
# Values joined by “and” are separate entries in the source; they are usually repeats but may differ in a detail not shown here. Identical values can stand only once.
# System: panel of 484 cancer cell lines
# Assay: PRISM cancer cell line profiling, 5 days
# Format: cell-based
# Set-up: Viability: scale not given here; AUC: unit not given beside the values
# Method: Cancer cell line profiling was performed using the Broad’s PRISM platform. Cell treatment and data analysis were performed as described in Yu et al[42]. Raw Luminex signal was converted to AUC values for each cell line as described. The resulting AUC profile for each compound was modeled against DepMap using the limma package in R[71]. Because hotspot mutation analysis was performed against DepMap, TP53 annotations in Fig. 6c,d are directly from DepMap.
# [1] = ISHIKAWAHERAKLIO02ER_ENDOMETRIUM, pert_dose 6.10E-04
# [2] = ISTMES1_PLEURA, pert_dose 6.10E-04
# [3] = J82_URINARY_TRACT, pert_dose 6.10E-04
# [4] = JHOC5_OVARY, pert_dose 6.10E-04
# [5] = JHOM1_OVARY, pert_dose 6.10E-04
# [6] = JHOS2_OVARY, pert_dose 6.10E-04
# [7] = JHUEM2_ENDOMETRIUM, pert_dose 6.10E-04
# [8] = JMSU1_URINARY_TRACT, pert_dose 6.10E-04
# [9] = K029AX_SKIN, pert_dose 6.10E-04
# [10] = KMBC2_URINARY_TRACT, pert_dose 6.10E-04
# [11] = KMRC1_KIDNEY, pert_dose 6.10E-04
# [12] = KMRC3_KIDNEY, pert_dose 6.10E-04
# [13] = KMRC20_KIDNEY, pert_dose 6.10E-04
# [14] = KNS42_CENTRAL_NERVOUS_SYSTEM, pert_dose 6.10E-04
# [15] = KNS60_CENTRAL_NERVOUS_SYSTEM, pert_dose 6.10E-04
# [16] = KNS81_CENTRAL_NERVOUS_SYSTEM, pert_dose 6.10E-04
# [17] = KP3_PANCREAS, pert_dose 6.10E-04
# [18] = KPL1_BREAST, pert_dose 6.10E-04
structure (smiles),measurement,setting,value
COc1ccc(C2=N[C@@H](c3ccc(Cl)cc3)[C@@H](c3ccc(Cl)cc3)N2C(=O)N2CCNC(=O)C2)c(OC(C)C)c1 [Nutlin-3A],MFI ISHIKAWAHERAKLIO02ER_ENDOMETRIUM,[1],17513 and 21089 and 23031 and 24710 and 21077
same,Viability,[1],1.048
same,AUC,ISTMES1_PLEURA,0.8886
same,MFI ISTMES1_PLEURA,[2],2566 and 2035 and 2347.5 and 2015 and 3109
same,Viability,[2],1.235
same,AUC,ISTMES2_PLEURA,1.138
same,AUC,J82_URINARY_TRACT,1.1759
same,MFI J82_URINARY_TRACT,[3],7594 and 8347 and 7959 and 7415.5 and 7720
same,Viability,[3],1.013
same,AUC,JHH1_LIVER,0.9453
same,MFI JHH1_LIVER,"JHH1_LIVER, pert_dose 6.10E-04",11573 and 10266 and 10186 and 11807 and 10726
same,Viability,"JHH1_LIVER, pert_dose 6.10E-04",1.394
same,AUC,JHH4_LIVER,1.013
same,MFI JHH4_LIVER,"JHH4_LIVER, pert_dose 6.10E-04",1508 and 1417.5 and 1162 and 1639 and 865
same,Viability,"JHH4_LIVER, pert_dose 6.10E-04",1.304
same,AUC,JHH5_LIVER,1.1112
same,MFI JHH5_LIVER,"JHH5_LIVER, pert_dose 6.10E-04",3002.5 and 2853 and 3080 and 1890 and 2323
same,Viability,"JHH5_LIVER, pert_dose 6.10E-04",1.08
same,AUC,JHH6_LIVER,1.195
same,AUC,JHH7_LIVER,1.097
same,MFI JHH7_LIVER,"JHH7_LIVER, pert_dose 6.10E-04",18251 and 14971.5 and 12968 and 19915 and 22149.5
same,Viability,"JHH7_LIVER, pert_dose 6.10E-04",1.3367
same,AUC,JHOC5_OVARY,0.8963
same,MFI JHOC5_OVARY,[4],1729 and 2155 and 2543 and 1875 and 1529
same,Viability,[4],1.248
same,AUC,JHOM1_OVARY,1.061
same,MFI JHOM1_OVARY,[5],10909 and 10588 and 11258 and 11487.5 and 8758
same,Viability,[5],1.182
same,AUC,JHOS2_OVARY,1.199
same,MFI JHOS2_OVARY,[6],8954 and 9206 and 9624 and 7221 and 11208
same,Viability,[6],1.028
same,AUC,JHUEM2_ENDOMETRIUM,0.8108
same,MFI JHUEM2_ENDOMETRIUM,[7],2855 and 2201 and 2113.5 and 2693 and 2731
same,Viability,[7],1.224
same,AUC,JIMT1_BREAST,1.15
same,MFI JIMT1_BREAST,"JIMT1_BREAST, pert_dose 6.10E-04",10595.5 and 12336 and 13040 and 10400 and 10776.5
same,AUC,JMSU1_URINARY_TRACT,1.157
same,MFI JMSU1_URINARY_TRACT,[8],4527 and 4135 and 3123.5 and 5456 and 3525
same,Viability,[8],1.215
same,AUC,K029AX_SKIN,1.078
same,MFI K029AX_SKIN,[9],12564 and 8034.5 and 10939 and 12309 and 13968
same,Viability,[9],1.186
same,AUC,KALS1_CENTRAL_NERVOUS_SYSTEM,1.089
same,AUC,KELLY_AUTONOMIC_GANGLIA,1.128
same,Viability,"KELLY_AUTONOMIC_GANGLIA, pert_dose 6.10E-04",1.339
same,AUC,KMBC2_URINARY_TRACT,0.9038
same,MFI KMBC2_URINARY_TRACT,[10],31608 and 32944 and 28231 and 28847.5 and 34382
same,Viability,[10],1.231
same,AUC,KMRC1_KIDNEY,0.8619
same,MFI KMRC1_KIDNEY,[11],5006 and 3553 and 4568 and 4375 and 4801
same,Viability,[11],1.324
same,AUC,KMRC3_KIDNEY,1.059
same,MFI KMRC3_KIDNEY,[12],29567 and 34290 and 33080.5 and 28662.5 and 32330
same,Viability,[12],1.163
same,AUC,KMRC20_KIDNEY,1.075
same,MFI KMRC20_KIDNEY,[13],6115 and 7240 and 5574 and 9127.5 and 7315
same,Viability,[13],0.8672
same,AUC,KNS42_CENTRAL_NERVOUS_SYSTEM,1.094
same,MFI KNS42_CENTRAL_NERVOUS_SYSTEM,[14],8504.5 and 8227 and 7874 and 8635.5 and 8359
same,Viability,[14],1.265
same,AUC,KNS60_CENTRAL_NERVOUS_SYSTEM,1.169
same,MFI KNS60_CENTRAL_NERVOUS_SYSTEM,[15],11444.5 and 12827 and 11109 and 11402 and 11624
same,Viability,[15],1.1124
same,AUC,KNS62_LUNG,1.292
same,MFI KNS62_LUNG,"KNS62_LUNG, pert_dose 6.10E-04",2968.5 and 3165 and 4343 and 4527 and 3128
same,Viability,"KNS62_LUNG, pert_dose 6.10E-04",1.098
same,AUC,KNS81_CENTRAL_NERVOUS_SYSTEM,0.9079
same,MFI KNS81_CENTRAL_NERVOUS_SYSTEM,[16],11445 and 13291.5 and 12010.5 and 13242.5 and 18307.5
same,Viability,[16],0.9016
same,AUC,KP2_PANCREAS,1.091
same,AUC,KP3_PANCREAS,1.107
same,MFI KP3_PANCREAS,[17],17810 and 19047 and 22202 and 17616 and 20627.5
same,Viability,[17],1.1325
same,AUC,KP4_PANCREAS,1.1795
same,MFI KP4_PANCREAS,"KP4_PANCREAS, pert_dose 6.10E-04",27317.5 and 27770 and 29960.5 and 31578.5 and 28421.5
same,AUC,KPL1_BREAST,0.8742
same,MFI KPL1_BREAST,[18],9781 and 14848 and 14727 and 9958 and 12061.5
same,Viability,[18],0.9855
same,AUC,KU1919_URINARY_TRACT,0.8508
same,AUC,KURAMOCHI_OVARY,1.126
same,AUC,KYSE30_OESOPHAGUS,0.985
same,AUC,KYSE70_OESOPHAGUS,1.1193
same,AUC,KYSE140_OESOPHAGUS,1.1498
same,AUC,KYSE150_OESOPHAGUS,1.138
same,AUC,KYSE180_OESOPHAGUS,1.143
same,AUC,KYSE270_OESOPHAGUS,0.9726
same,AUC,KYSE410_OESOPHAGUS,1.088
same,AUC,KYSE510_OESOPHAGUS,0.9924
same,AUC,KYSE520_OESOPHAGUS,1.08
same,AUC,L33_PANCREAS,1.295
same,AUC,LC1SQSF_LUNG,1.142
same,AUC,LCLC103H_LUNG,1.118
same,AUC,LI7_LIVER,1.226
same,AUC,LK2_LUNG,1.169
same,AUC,LMSU_STOMACH,1.203
same,AUC,LN18_CENTRAL_NERVOUS_SYSTEM,0.9973
same,AUC,LN229_CENTRAL_NERVOUS_SYSTEM,1.064
same,AUC,LNCAPCLONEFGC_PROSTATE,0.906
same,AUC,LOUNH91_LUNG,1.066
same,AUC,LOVO_LARGE_INTESTINE,1.199
same,AUC,LOXIMVI_SKIN,0.8907
same,AUC,LS180_LARGE_INTESTINE,0.8897
same,AUC,LS411N_LARGE_INTESTINE,1.29
same,AUC,LS513_LARGE_INTESTINE,0.8844
same,AUC,LS1034_LARGE_INTESTINE,1.251
same,AUC,LU99_LUNG,0.8923
same,AUC,LUDLU1_LUNG,1.181
same,AUC,LXF289_LUNG,1.109
same,AUC,MALME3M_SKIN,0.9143
same,AUC,MCAS_OVARY,1.217
same,AUC,MCF7_BREAST,0.9374
same,AUC,MDAMB175VII_BREAST,0.8089
same,AUC,MDAMB231_BREAST,1.111
same,AUC,MDAMB435S_SKIN,1.081
same,AUC,MDAMB436_BREAST,1.063
same,AUC,MDAMB468_BREAST,1.113
same,AUC,MELHO_SKIN,1.198
same,AUC,MELJUSO_SKIN,0.855
same,AUC,MESSA_SOFT_TISSUE,0.8635
same,AUC,MEWO_SKIN,1.1265
same,AUC,MFE280_ENDOMETRIUM,1.185
same,AUC,MFE296_ENDOMETRIUM,1.073
same,AUC,MFE319_ENDOMETRIUM,1.2827
same,AUC,MG63_BONE,1.195
same,AUC,MHHES1_BONE,1.218
same,AUC,MIAPACA2_PANCREAS,1.097
same,AUC,MKN1_STOMACH,1.379
same,AUC,MKN7_STOMACH,1.0858
same,AUC,MKN45_STOMACH,0.8665
same,AUC,MKN74_STOMACH,1.252
same,AUC,MON_SOFT_TISSUE,0.7179
same,AUC,MPP89_PLEURA,1.087
same,AUC,MSTO211H_PLEURA,0.822
same,AUC,NB1_AUTONOMIC_GANGLIA,0.8777
same,AUC,NCIH23_LUNG,0.9857
same,AUC,NCIH28_PLEURA,0.8619
same,AUC,NCIH226_LUNG,0.8738
same,AUC,NCIH292_LUNG,0.8581
same,AUC,NCIH322_LUNG,1.162
same,AUC,NCIH358_LUNG,1.107
same,AUC,NCIH446_LUNG,1.181
same,AUC,NCIH460_LUNG,0.8926
same,AUC,NCIH520_LUNG,1.322
same,AUC,NCIH522_LUNG,1.212
same,AUC,NCIH596_LUNG,1.199
same,AUC,NCIH650_LUNG,1.249
same,AUC,NCIH661_LUNG,1.081
same,AUC,NCIH727_LUNG,1.026
same,AUC,NCIH747_LARGE_INTESTINE,1.189
same,AUC,NCIH838_LUNG,0.9622
same,AUC,NCIH841_LUNG,1.117
same,AUC,NCIH1048_LUNG,1.2735
same,AUC,NCIH1299_LUNG,1.108
same,AUC,NCIH1339_LUNG,1.0925
same,AUC,NCIH1355_LUNG,1.119
same,AUC,NCIH1373_LUNG,1.06
same,AUC,NCIH1435_LUNG,1.3405
same,AUC,NCIH1437_LUNG,1.108
same,AUC,NCIH1563_LUNG,0.9521
same,AUC,NCIH1568_LUNG,1.038
same,AUC,NCIH1573_LUNG,1.073
same,AUC,NCIH1581_LUNG,1.043
same,AUC,NCIH1623_LUNG,1.145
same,AUC,NCIH1648_LUNG,1.123
same,AUC,NCIH1650_LUNG,0.973
same,AUC,NCIH1651_LUNG,1.183
same,AUC,NCIH1693_LUNG,1.133
same,AUC,NCIH1703_LUNG,1.137
same,AUC,NCIH1792_LUNG,1.259
same,AUC,NCIH1793_LUNG,1.1676
same,AUC,NCIH1838_LUNG,1.199
same,AUC,NCIH1915_LUNG,1.099
same,AUC,NCIH1944_LUNG,0.8303
same,AUC,NCIH1975_LUNG,1.115
same,AUC,NCIH2009_LUNG,0.9703
same,AUC,NCIH2023_LUNG,1.159
same,AUC,NCIH2030_LUNG,1.1142
same,AUC,NCIH2052_PLEURA,0.8463
same,AUC,NCIH2077_LUNG,0.9696
same,AUC,NCIH2087_LUNG,1.211
same,AUC,NCIH2110_LUNG,1.143
same,AUC,NCIH2122_LUNG,0.8016
same,AUC,NCIH2126_LUNG,1.1108
